The experiment has as its system 292921-168-R-J2-PDC KRAS tumor spheroid viability. The experiment can be described thus: Anticancer human tumor 292921-168-R-J2-PDC patient-derived pancreatic carcinoma cell line growth inhibition [KRAS2]. The following applies: spheroids with HUVEC and MSC; for viability, T/C: stronger effect = lower value. The procedure, abridged: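 Combination screen of spheroid viability in tumor-cell co-cultures with endothelial (HUVEC) and mesenchymal stem cell stroma. Each agent was tested in half-log dilutions, topping at clinical Cmax or at 10 microM without a known Cmax.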

Setting [1] is: curve of first compound, second compound 0.1 µM.
[2] abbreviates: curve of first compound, second compound 0.316 µM.
Setting [3] is: curve of first compound, second compound 1 µM.
Setting [4] is: curve of first compound, second compound 3.16 µM.
[5] abbreviates: curve of first compound, second compound 10 µM.
Setting [6] is: second compound 0.1 µM, first compound 0.0316 µM.
Setting [7] is: second compound 0.1 µM, first compound 0.1 µM.
Where [8] appears, read: second compound 0.1 µM, first compound 0.316 µM.
Where [9] appears, read: second compound 0.1 µM, first compound 1 µM.
[10] abbreviates: second compound 0.1 µM, first compound 3.16 µM.
The mark [11] stands for this setting: second compound 0.1 µM, first compound 10 µM.
Where [12] appears, read: second compound 0.316 µM, first compound 0.0316 µM.
The mark [13] stands for this setting: second compound 0.316 µM, first compound 0.1 µM.
The mark [14] stands for this setting: second compound 0.316 µM, first compound 0.316 µM.
[15] abbreviates: second compound 0.316 µM, first compound 1 µM.
Setting [16] is: second compound 0.316 µM, first compound 3.16 µM.
[17] abbreviates: second compound 0.316 µM, first compound 10 µM.
Setting [18] is: second compound 1 µM, first compound 0.0316 µM.
Setting [19] is: second compound 1 µM, first compound 0.1 µM.
Where [20] appears, read: second compound 1 µM, first compound 0.316 µM.
Where [21] appears, read: second compound 1 µM, first compound 1 µM.
The mark [22] stands for this setting: second compound 1 µM, first compound 3.16 µM.
Setting [23] is: second compound 1 µM, first compound 10 µM.
[24] abbreviates: second compound 3.16 µM, first compound 0.0316 µM.
Where [25] appears, read: second compound 3.16 µM, first compound 0.1 µM.
Setting [26] is: second compound 3.16 µM, first compound 0.316 µM.
Setting [27] is: second compound 3.16 µM, first compound 1 µM.
The mark [28] stands for this setting: second compound 3.16 µM, first compound 3.16 µM.
Setting [29] is: second compound 3.16 µM, first compound 10 µM.
The mark [30] stands for this setting: second compound 10 µM, first compound 0.0316 µM.
[31] abbreviates: second compound 10 µM, first compound 0.1 µM.
The mark [32] stands for this setting: second compound 10 µM, first compound 0.316 µM.
[33] abbreviates: second compound 10 µM, first compound 1 µM.
Where [34] appears, read: second compound 10 µM, first compound 3.16 µM.
[35] abbreviates: second compound 10 µM, first compound 10 µM.
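Also: drug exposure lasted seven days after spheroids formed for three days.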
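For viability, T/C in this document: percent of DMSO vehicle control viability which is 100%.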

For the compound `Cn1nccc1Nc1nccc(-c2cc3c(s2)C(C)(C)N(CCN2CCOCC2)C3=O)n1` + CNCc1ccccc1-c1csc(C(C)Nc2nc(C)nc3cc(OC)c(OC)cc23)c1, the IC50 (as a rule, the concentration needed to halve the response being measured) is, setting by setting: under setting [1], 83.9 nM; under setting [2], 66.6 nM; under setting [3], under 31.6 nM; under setting [4], under 31.6 nM; under setting [5], under 31.6 nM. Besides, the viability, T/C (commonly the ratio of treated to control) under setting [6] is 73.9%; the viability, T/C under setting [7] is 45.7%; the viability, T/C under setting [8] is 19%; the viability, T/C under setting [9] is 12.3%; the viability, T/C under setting [10] is 10.2%; the viability, T/C under setting [11] was 10.2%. Also, the viability, T/C reads like this: under setting [12], 68.8%; under setting [13], 39.7%; under setting [14], 18.6%; under setting [15], 10.9%; under setting [16], 9.74%; under setting [17], 10.6%. Also, the viability, T/C reads like this: under setting [18], 47.1%; under setting [19], 30.1%; under setting [20], 14.5%; under setting [21], 11.1%; under setting [22], 8.76%; under setting [23], 6.3%. For the same compound, the viability, T/C under setting [24] was 0.09%; the viability, T/C under setting [25] is 0.29%; the viability, T/C under setting [26] is 0.03%; the viability, T/C under setting [27] is 0.03%; the viability, T/C under setting [28] was 0.03%; the viability, T/C under setting [29] is 0.11%. In addition, the viability, T/C runs as follows: under setting [30], 0.08%; under setting [31], 0.09%; under setting [32], 0.1%; under setting [33], 0.09%; under setting [34], 0.1%; under setting [35], 0.15%.

Turning to `Cn1ncnc1[C@H]1c2n[nH]c(=O)c3cc(F)cc(c23)N[C@@H]1c1ccc(F)cc1` + C=CC(=O)N1CCN(c2nc(=O)n(-c3c(C)ccnc3C(C)C)c3nc(-c4c(O)cccc4F)c(F)cc23)C(C)C1, the IC50 reads like this: under setting [1], over 100 nM; under setting [2], over 100 nM; under setting [3], over 100 nM; under setting [4], 89.7 nM; under setting [5], under 0.316 nM. Moreover, the viability, T/C is 103% (second compound 0.1 µM, first compound 0.000316 µM); 104% (second compound 0.1 µM, first compound 0.001 µM); 105% (second compound 0.1 µM, first compound 0.00316 µM); 103% (second compound 0.1 µM, first compound 0.01 µM); 87.5% under setting [6]; 78.5% under setting [7]. Also, the viability, T/C reads like this: (second compound 0.316 µM, first compound 0.000316 µM) 113%; (second compound 0.316 µM, first compound 0.001 µM) 109%; (second compound 0.316 µM, first compound 0.00316 µM) 105%; (second compound 0.316 µM, first compound 0.01 µM) 97.6%; under setting [12], 97.7%; under setting [13], 88.4%. In addition, the viability, T/C (second compound 1 µM, first compound 0.000316 µM) is 106%; the viability, T/C (second compound 1 µM, first compound 0.001 µM) was 97.3%; the viability, T/C (second compound 1 µM, first compound 0.00316 µM) is 94.9%; the viability, T/C (second compound 1 µM, first compound 0.01 µM) was 94.8%; the viability, T/C under setting [18] was 83.2%; the viability, T/C under setting [19] was 73.3%. The viability, T/C (second compound 3.16 µM, first compound 0.000316 µM) is 74.3%; the viability, T/C (second compound 3.16 µM, first compound 0.001 µM) was 64.2%; the viability, T/C (second compound 3.16 µM, first compound 0.00316 µM) is 65.1%; the viability, T/C (second compound 3.16 µM, first compound 0.01 µM) was 65.3%; the viability, T/C under setting [24] is 54.3%; the viability, T/C under setting [25] is 49.2%. In addition, the viability, T/C runs as follows: (second compound 10 µM, first compound 0.000316 µM) 18.7%; (second compound 10 µM, first compound 0.001 µM) 20.8%; (second compound 10 µM, first compound 0.00316 µM) 20.6%; (second compound 10 µM, first compound 0.01 µM) 21.9%; under setting [30], 21.3%; under setting [31], 18.6%.

Turning to `CC(C)NCC(C(=O)N1CCN(c2ncnc3c2C(C)CC3O)CC1)c1ccc(Cl)cc1` (centres undefined) + CNCc1ccccc1-c1csc(C(C)Nc2nc(C)nc3cc(OC)c(OC)cc23)c1, the IC50 is, setting by setting: under setting [1], 7140 nM; under setting [2], 5150 nM; under setting [3], 597 nM; under setting [4], under 31.6 nM; under setting [5], under 31.6 nM. Besides, the viability, T/C reads like this: under setting [6], 80.5%; under setting [7], 88.9%; under setting [8], 74.1%; under setting [9], 77.3%; under setting [10], 67.8%; under setting [11], 42.5%. Further, the viability, T/C is 76.9% under setting [12]; 70.6% under setting [13]; 65.1% under setting [14]; 65.4% under setting [15]; 62.6% under setting [16]; 35.6% under setting [17]. The viability, T/C was 59.9% under setting [18]; 55.4% under setting [19]; 49.5% under setting [20]; 46.7% under setting [21]; 42.2% under setting [22]; 22.9% under setting [23]. Further, the viability, T/C was 0.1% under setting [24]; 0.09% under setting [25]; 0.37% under setting [26]; 0.1% under setting [27]; 0.07% under setting [28]; 0.36% under setting [29]. For the same compound, the viability, T/C was 0.09% under setting [30]; 0.08% under setting [31]; 0.25% under setting [32]; 0.36% under setting [33]; 0.09% under setting [34]; 0.3% under setting [35].

As to `Cn1nccc1Nc1nccc(-c2cc3c(s2)C(C)(C)N(CCN2CCOCC2)C3=O)n1`, the viability, T/C reads like this: (compound 0.0316 µM) 80.7% [middle of 5 runs]; (compound 0.1 µM) 45.7% [middle of 5 runs]; (compound 0.316 µM) 21.1% [middle of 5 runs]; (compound 1 µM) 13.4% [middle of 4 runs]; (compound 3.16 µM) 11.2% [middle of 4 runs]; (compound 10 µM) 11.7% [middle of 5 runs]. Further, the IC50 (curve of compound) was 86 nM [middle of 5 runs].

`CC(=O)OC12COC1CC(O)C1(C)C(=O)C(O)C3=C(C)C(OC(=O)C(O)C(NC(=O)OC(C)(C)C)c4ccccc4)CC(O)(C(OC(=O)c4ccccc4)C21)C3(C)C` (centres undefined): the viability, T/C (compound 0.01 µM) was 14.3% [middle of 5 runs]; the viability, T/C (compound 0.0316 µM) is 14.3% [middle of 5 runs]; the viability, T/C (compound 0.1 µM) was 12.4% [middle of 5 runs]; the viability, T/C (compound 0.316 µM) is 12.8% [middle of 5 runs]; the viability, T/C (compound 1 µM) is 13.8% [middle of 5 runs]; the viability, T/C (compound 3.16 µM) is 17.6% [middle of 5 runs]. For the same compound, the IC50 (curve of compound) is under 10 nM.

The record behind these values is PubChem BioAssay AID1963870 (Molecular Pharmacology Branch, DTP, NCI, 2024).
